Source: ChEMBL document CHEMBL1201862, “PubChem BioAssay data set” (2004)
Active and inactive are the calls of the source.

Experiments:
[1] = target: Cytochrome P450 3A4 (Homo sapiens, UniProt P08684); conditions: Potency;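 further: confirmatory qHTS run detecting inhibitors and substrates of CYP3A4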
[2] = target: Heat shock protein HSP 90-alpha (Homo sapiens, UniProt P07900); assay type: functional, organism-based
[3] = target: T1, Endoribonuclease toxin MazF (Escherichia coli K-12, UniProt P0AE70); test: fluorescent RNA oligo signal without MazF, dose response, counter-screen for MazEF activator project, biochemical, fluorescence, single-stranded RNase substrate (AID 588502); assay type: functional
T1 sequence (P0AE70 whole entry): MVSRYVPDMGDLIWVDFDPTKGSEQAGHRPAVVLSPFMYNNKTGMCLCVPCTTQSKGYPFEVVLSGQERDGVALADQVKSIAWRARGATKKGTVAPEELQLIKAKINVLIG

[4] = system: H9c2; test: cells; assay type: functional, cell-based; conditions: Rattus norvegicus, H9c2, Myocardium;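 further: confirmatory concentration-response retest of ultra-high-throughput screening hits for modulation of myocardial damage; cell death induced by hydrogen peroxide oxidative stress; compound pretreatment for 60 min then peroxide exposure for 2 h; potency is for protecting the cells against peroxide damage rather than for killing them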
[5] = target: T1, Endoribonuclease toxin MazF; test: MazF toxin RNase activators, dose response, biochemical, fluorescence, single-stranded RNA substrate, uHTS hits (AID 588481); assay type: functional
[6] = cytotoxicity in HEK-293T cells, dose response, cytotoxicity control for TCR NF-kB inhibitor project, luminescence, T-cell screen hits (AID 489026); assay type: functional, cell-based;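 further: cells exposed to compound about 14 hours before the viability readout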
[7] = target: T2, Long-chain-fatty-acid--AMP ligase FadD28 (Mycobacterium tuberculosis, UniProt P9WQ59); test: Fluorescence polarization aasay to screen for inhibitors that compete for the binding of FadD28 to a bisubstrate Measured in Biochemical System Using Plate Reader - 2147-01_Inhibitor_Dose_CherryPick_Activity.; assay type: functional, Mycobacterium tuberculosis H37Rv
T2 sequence (P9WQ59 whole entry): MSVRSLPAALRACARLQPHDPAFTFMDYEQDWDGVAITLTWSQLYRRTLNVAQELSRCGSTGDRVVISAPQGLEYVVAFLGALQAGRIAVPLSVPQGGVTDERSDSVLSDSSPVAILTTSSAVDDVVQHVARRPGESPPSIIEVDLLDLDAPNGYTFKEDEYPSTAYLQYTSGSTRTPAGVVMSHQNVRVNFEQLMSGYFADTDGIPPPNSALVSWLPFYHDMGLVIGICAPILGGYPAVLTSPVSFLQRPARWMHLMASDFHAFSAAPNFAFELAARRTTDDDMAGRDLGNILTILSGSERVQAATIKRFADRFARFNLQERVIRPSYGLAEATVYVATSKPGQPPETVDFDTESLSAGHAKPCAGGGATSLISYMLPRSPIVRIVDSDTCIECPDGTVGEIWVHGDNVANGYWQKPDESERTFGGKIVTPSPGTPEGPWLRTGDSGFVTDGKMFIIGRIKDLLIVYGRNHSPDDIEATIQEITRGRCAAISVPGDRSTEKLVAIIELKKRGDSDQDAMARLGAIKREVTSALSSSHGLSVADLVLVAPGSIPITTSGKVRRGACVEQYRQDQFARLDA

[8] = target: T3, Protein RecA (Mycobacterium tuberculosis, UniProt P9WHJ3); test: Fluorescence Cell-Free Homogeneous Dose Retest to Identify Inhibitors of RecA-Intein Splicing Activity. [Related pubchem assays (depositor defined):AID2097, AID2223, AID489010, AID492950]; assay type: functional
T3 sequence (P9WHJ3 whole entry): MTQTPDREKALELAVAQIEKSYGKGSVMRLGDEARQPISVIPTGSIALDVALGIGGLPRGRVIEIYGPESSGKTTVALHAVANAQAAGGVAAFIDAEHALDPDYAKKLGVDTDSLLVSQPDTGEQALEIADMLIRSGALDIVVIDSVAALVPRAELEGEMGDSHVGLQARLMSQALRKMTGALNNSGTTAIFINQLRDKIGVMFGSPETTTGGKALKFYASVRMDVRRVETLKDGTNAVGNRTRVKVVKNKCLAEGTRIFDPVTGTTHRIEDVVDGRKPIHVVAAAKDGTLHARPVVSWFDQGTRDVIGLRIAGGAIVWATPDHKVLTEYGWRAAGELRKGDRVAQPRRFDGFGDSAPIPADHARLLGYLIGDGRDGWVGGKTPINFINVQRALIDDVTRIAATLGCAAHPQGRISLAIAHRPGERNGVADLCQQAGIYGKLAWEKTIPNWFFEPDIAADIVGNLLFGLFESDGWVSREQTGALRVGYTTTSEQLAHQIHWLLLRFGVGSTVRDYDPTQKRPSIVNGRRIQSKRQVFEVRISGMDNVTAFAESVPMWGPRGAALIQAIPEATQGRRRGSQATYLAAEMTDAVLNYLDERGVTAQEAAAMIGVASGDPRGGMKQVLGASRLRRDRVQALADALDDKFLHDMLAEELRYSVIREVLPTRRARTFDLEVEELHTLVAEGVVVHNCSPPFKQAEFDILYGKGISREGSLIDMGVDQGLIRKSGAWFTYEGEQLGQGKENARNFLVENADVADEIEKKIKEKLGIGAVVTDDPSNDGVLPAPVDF

[9] = target: T4, Replicative DNA helicase DnaB (Mycobacterium tuberculosis, UniProt P9WMR3); test: DnaB intein splicing inhibitors, dose response, biochemical, cell-free fluorescence (AID 449749); assay type: functional
T4 sequence (P9WMR3 whole entry): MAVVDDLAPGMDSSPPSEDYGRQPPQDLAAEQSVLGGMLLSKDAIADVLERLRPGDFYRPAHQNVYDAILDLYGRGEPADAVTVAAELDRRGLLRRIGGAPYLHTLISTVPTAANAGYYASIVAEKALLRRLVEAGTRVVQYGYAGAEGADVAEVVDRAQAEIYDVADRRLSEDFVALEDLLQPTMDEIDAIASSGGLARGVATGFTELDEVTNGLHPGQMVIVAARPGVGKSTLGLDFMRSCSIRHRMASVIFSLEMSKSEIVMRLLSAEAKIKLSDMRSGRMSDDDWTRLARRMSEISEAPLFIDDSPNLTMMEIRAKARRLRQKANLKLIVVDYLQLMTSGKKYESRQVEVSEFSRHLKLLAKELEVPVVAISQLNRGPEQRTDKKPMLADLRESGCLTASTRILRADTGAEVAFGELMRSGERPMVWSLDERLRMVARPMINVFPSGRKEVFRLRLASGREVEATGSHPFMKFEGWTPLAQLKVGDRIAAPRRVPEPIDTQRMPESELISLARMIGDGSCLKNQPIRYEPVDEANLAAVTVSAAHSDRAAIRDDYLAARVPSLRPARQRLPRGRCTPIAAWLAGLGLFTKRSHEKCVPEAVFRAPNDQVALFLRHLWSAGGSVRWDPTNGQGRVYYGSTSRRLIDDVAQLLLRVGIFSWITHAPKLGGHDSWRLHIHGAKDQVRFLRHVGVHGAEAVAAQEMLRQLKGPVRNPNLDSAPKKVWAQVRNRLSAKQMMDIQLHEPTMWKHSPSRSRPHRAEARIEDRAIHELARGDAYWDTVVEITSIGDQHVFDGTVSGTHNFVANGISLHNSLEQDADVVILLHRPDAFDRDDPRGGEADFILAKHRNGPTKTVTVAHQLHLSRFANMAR

[10] = microbe, parasite or virus in culture; assay type: functional; conditions: Mycobacterium tuberculosis
[11] = target: T5, Polyadenylate-binding protein 1 (Homo sapiens, UniProt P11940); test: PABP1 MLLE–PAM2 binding inhibitor potency, dose response, biochemical, fluorescence polarization, FITC-PAM2 peptide (AID 602259); assay type: functional; conditions: read-out: IC50_Mean
[12] = target: T5, Polyadenylate-binding protein 1; test: PABP1 MLLE–PAM2 interaction inhibitors, dose response, miRNA deadenylation inhibitor project, biochemical, fluorescence polarization, Cy5-PAM2 peptide, secondary (AID 602260); assay type: functional; conditions: read-out: IC50_Mean
[13] = THP-1 cell cytotoxicity, dose response, cytotoxicity control for non-replicating M. tuberculosis project (AID 489025); assay type: functional
[14] = cells; assay type: functional
[15] = cytotoxicity toward NIH3T3 fibroblasts, dose response, counter-screen, cell-based, ATP luminescence, mouse fibroblasts (AID 2010); assay type: functional;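 further: cells exposed to compound for about 90 hours before reading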
[16] = inhibitors of intracellular T. cruzi replication, confirmation, NIH3T3 host cells, beta-gal luminescence (AID 2044); assay type: functional, cell-based;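 further: intracellular parasites grown in NIH/3T3 mouse fibroblasts as host cells; luminescent beta-galactosidase reporter signal from transgenic T. cruzi replicating inside host cells; inhibitors lower the luminescence signal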
[17] = Vero E6 cell cytotoxicity, dose response, cytotoxicity control for non-replicating M. tuberculosis project, secondary assay (AID 492998); assay type: functional, VeroE6; conditions: Vero C1008
[18] = cells; assay type: functional, cell-based
[19] = cells; assay type: functional, cell-based; remark: listed apart in the source

Sequence of Cytochrome P450 3A4 (P08684 whole entry): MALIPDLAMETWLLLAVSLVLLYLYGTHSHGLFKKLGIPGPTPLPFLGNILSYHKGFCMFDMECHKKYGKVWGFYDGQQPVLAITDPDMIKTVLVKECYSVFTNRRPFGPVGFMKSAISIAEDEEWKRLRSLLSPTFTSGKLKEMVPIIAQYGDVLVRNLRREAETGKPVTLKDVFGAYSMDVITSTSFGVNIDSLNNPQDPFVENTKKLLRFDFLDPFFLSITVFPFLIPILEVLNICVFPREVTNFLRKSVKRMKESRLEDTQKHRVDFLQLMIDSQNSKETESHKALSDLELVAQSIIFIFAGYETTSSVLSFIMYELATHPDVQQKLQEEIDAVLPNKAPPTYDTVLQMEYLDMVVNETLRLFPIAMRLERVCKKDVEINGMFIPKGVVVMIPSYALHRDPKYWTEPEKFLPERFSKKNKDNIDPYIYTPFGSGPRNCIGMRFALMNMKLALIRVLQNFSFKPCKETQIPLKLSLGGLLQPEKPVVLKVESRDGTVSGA
T5 sequence (P11940 whole entry): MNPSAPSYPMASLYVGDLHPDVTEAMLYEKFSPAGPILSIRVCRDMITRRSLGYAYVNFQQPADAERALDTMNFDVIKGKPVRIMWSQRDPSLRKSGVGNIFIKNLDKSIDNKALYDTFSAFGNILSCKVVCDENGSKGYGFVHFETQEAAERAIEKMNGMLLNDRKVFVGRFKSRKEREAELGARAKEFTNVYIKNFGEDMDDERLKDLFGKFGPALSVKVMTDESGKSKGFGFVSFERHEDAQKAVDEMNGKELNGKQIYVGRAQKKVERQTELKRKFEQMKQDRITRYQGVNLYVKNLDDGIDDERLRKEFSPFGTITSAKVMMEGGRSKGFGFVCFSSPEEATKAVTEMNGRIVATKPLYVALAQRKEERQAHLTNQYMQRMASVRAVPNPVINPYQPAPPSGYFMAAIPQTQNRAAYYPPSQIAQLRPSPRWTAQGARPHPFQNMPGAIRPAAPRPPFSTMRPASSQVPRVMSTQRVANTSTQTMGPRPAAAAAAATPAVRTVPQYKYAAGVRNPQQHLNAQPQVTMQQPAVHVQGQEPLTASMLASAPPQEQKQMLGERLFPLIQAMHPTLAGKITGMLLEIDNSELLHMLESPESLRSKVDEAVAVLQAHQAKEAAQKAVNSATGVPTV

In the case of COC(=O)c1c(C)c2c(c(C)c1O)OC(=O)c1c(C)c(Cl)c(O)c(Cl)c1O2 [LEOIDIN], the AC50 [1] is reported as 2.51 µM (inconclusive).
For Cc1ccc2c(c1)C(=O)C(=O)N2Cc1ccc(C(F)(F)F)cc1, the AC50 [2] was 7.94 µM (active).
For Cc1cccc(-n2[nH]c(C)c(/C=N/c3ccc4[nH]c(O)nc4c3)c2=O)c1, the EC50 [3] was 65.2 µM (inactive), the IC50 [4] was > 79 µM (inactive) and the EC50 [5] was 36 µM (inactive).
With COc1cc(C2c3cc4c(cc3CC3COC(=O)C32)OCO4)cc(OC)c1OC (centres undefined) the IC50 [6] was > 80 µM (inactive).
With COC(=O)c1cccc(C23CC4(C2)[C@H](CN(Cc2ccc(-c5ccccc5)cc2)[C@@H]4c2ccccc2)C3c2ccc(C(F)(F)F)cc2)c1 (some centres undefined) the AC50 [1] was 20 µM (inconclusive).
With COc1ccc(NC(=O)CNc2ccccc2N2CCCC2=O)cc1S(=O)(=O)N1CCOCC1 the AC50 [7] was 34.1 µM (active).
With CCOC(=O)CSc1nc2cc(C)ccc2cc1C#N the EC50 [3] was 26.8 µM (inactive) and the EC50 [5] was > 99 µM (inactive).
With Cc1sc(NC(=O)COc2cccc(-n3cnnn3)c2)c(C#N)c1C the EC50 [3] was > 99 µM (inactive) and the EC50 [5] was > 99 µM (inactive).
With O=c1c(-c2ccccc2)c(-c2ccccc2)oc2cc(O)cc(O)c12 the AC50 [2] was 7.78 µM (active).
In the case of Cc1[nH]n(-c2ccccc2)c(=O)c1C(C[N+](=O)[O-])c1ccccc1Cl (centres undefined), the EC50 [8] is reported as 5.48 µM (active), the AC50 [9] is reported as 6.69 µM (active) and the CC50 [10] is reported as > 40 µM (active).
With COc1cccc(NC(=O)CN(C)C(=O)c2cc3c(s2)CCCCC3)c1 the AC50 [7] was 84 µM (active).
For CCCCC(CC)COP(=O)(OCC(CC)CCCC)OCC(CC)CCCC (centres undefined), the AC50 [1] was 15.8 µM (inconclusive).
With COc1ccc2nc3cc(Cl)ccc3c(C#N)c2c1 the EC50 [3] was > 99 µM (inactive), the IC50 [11] was > 66 µM (inactive) and the EC50 [5] was > 99 µM (inactive). The IC50 [12] was > 66 µM (inactive).
In the case of COC(=O)[C@@H]1C[C@@H]2CC[C@@H](O)C[C@@H]2N1Cc1ccc(C)s1, the AC50 [1] is reported as 25.1 µM (inconclusive).
For Nc1ncnc2c1ncn2[C@@H]1O[C@H](CNCc2ccc(OCc3ccccc3)cc2)[C@@H](O)[C@H]1O, the AC50 [7] was 64.2 µM (active).
With Cc1cccc(NC(=O)c2ccc([N+](=O)[O-])s2)n1 the CC50 [13] was 29.9 µM (active), the IC50 [14] was 11.8 µM (active) and the EC50 [15] was > 60 µM (not active). For the same molecule, the EC50 [16] was 0.325 µM (active) and the CC50 [17] was 19.1 µM (active).
For Nc1c(C(=O)c2ccc(Cl)cc2)sc2nc3c(cc12)CCC3, the EC50 [3] was > 99 µM (inactive) and the EC50 [5] was > 99 µM (inactive).
For Cc1cc(C)nc(Sc2ncnc(N)c2[N+](=O)[O-])n1, the CC50 [13] was 23.8 µM (active), the IC50 [14] was 11.7 µM (active) and the EC50 [18] was > 350 µM (not active). For the same molecule, the CC50 [10] was 26.3 µM (active), the CC50 [17] was 17.8 µM (active) and the EC50 [19] was > 350 µM (not active).
With COc1cc(OC)cc(N2C(=O)CC(N3CCC(C(=O)N4CCCCC4)CC3)C2=O)c1 (centres undefined) the AC50 [2] was 8.16 µM (active).
In the case of C=CCOC(=O)C(C(C)=O)C(NC(=O)OC)c1ccco1 (centres undefined), the AC50 [1] is reported as 5.01 µM (inconclusive).
